Source: PMC10143848 (Viruses, 2023)

Tests used:
[1] = system: SARS-CoV-2 viral main protease; design: method as in ref 36 = [36]; conditions: in silico finding; compounds from E. purpurea; cited from earlier work
[2] = system: RSV A2; assay: Virus yield inhibition assay, RSV A2; type: cell-based; conditions: human respiratory syncytial virus, moi 0.1, 24 h, virus yield by plaque assay
[3] = in vitro; type: cell-based; conditions: human (HEp-2, A549, HCLE, Calu-3); cat (CRFK)
[4] = system: RSV A2; assay: Immunofluorescence, RSV gF expression in infected cells; type: cell-based, Human RSV; conditions: RSV A2 moi 1, 25 μg/mL of A18, 24 h p.i.
[5] = system: SARS-CoV-2; type: cell-based
[6] = system: RSV A2; assay: RSV qRT-PCR assay (viral RNA synthesis); type: cell-based, Human RSV; conditions: A549 and Hep-2 cells, A18 25 mg/mL (so in the source), 6 h, 15 h and 24 h p.i.
[7] = system: RSV A2; assay: Adsorption and penetration assay, RSV A2; type: cell-based, Human RSV; conditions: A549 cells
[8] = system: HSV-1 KOS; assay: Adsorption and penetration assay, HSV-1 KOS; type: cell-based; conditions: HCLE cells
[9] = system: SARS-CoV-2; assay: Adsorption and penetration assay, SARS-CoV-2; type: cell-based; conditions: calu-3 cells
[10] = system: IL-6, IL-8, and TNF-α; assay: Cytokine determination by ELISA in RSV A2-infected cells; type: cell-based; conditions: RSV A2 moi 1, 24 h, A18 25 mg/mL, BAY 11-7085 10 mg/mL (so in the source); for IL-6 production vs RSV-infected control cells: Hep-2, A549, J774A.1 cells; for TNF-α production vs RSV-infected control cells: J774A.1 macrophages; for IL-8 production vs RSV-infected control cells: epithelial cells (Hep-2, A549)
[11] = system: IL-6, IL-8, and TNF-α; assay: Cytokine determination by ELISA in TLR2/6 and TLR3 ligand-stimulated cells; type: cell-based; conditions: A549, Hep-2, J774A.1; TLR2/6 and TLR3 ligands for 6 h / 8 h (Fig. S3); A18 25, BAY 11-7085 10
[12] = system: NF-κB signaling pathway; assay: NF-κB-LUC reporter gene assay in RSV A2-infected cells; type: cell-based; conditions: Hep-2, A549, J774A.1 cells infected with RSV A2 moi 1, 6 h; A18 25 μg/mL, BAY 11-7085 10 mg/mL (so in the source)
[13] = system: RSV line 19 and A2; assay: Pulmonary RSV infection in mouse model; type: in vivo, Balb/C mice
[14] = system: IL-6, IL-4, IL-17A, IFN-γ; assay: Pulmonary cytokines qRT-PCR in RSV-infected mice; type: in vivo, Balb/C mice; conditions: RSV-infected mice treated with A18, day 8 p.i.
[15] = system: HSV-1 KOS
[16] = system: HSV-1 Field
[17] = system: HSV-1 B2006
[18] = system: SARS-CoV-2
[19] = system: Canine Coronavirus
[20] = system: airway hyperreactivity (AHR); design: method as in ref 14 = [14]; conditions: i.p. (6 mg/kg/day) and i.n. (3 mg/kg/day), mouse models of steroid-resistant and severe asthma; cited from earlier work
[21] = system: SARS-CoV-2 spike protein; design: method as in ref 37 = [37]; conditions: molecular docking and dynamics simulation; cited from earlier work
[22] = system: RSV Line 19; assay: microbe, parasite or virus in culture; conditions: human respiratory syncytial virus
[23] = system: HSV-1 KOS; assay: microbe, parasite or virus in culture; conditions: Human alphaherpesvirus 1, HCLE, 24 h
[24] = system: HSV-1 Field; assay: microbe, parasite or virus in culture; conditions: Human alphaherpesvirus 1, HCLE, 24 h
[25] = system: HSV-1 B2006; assay: microbe, parasite or virus in culture; conditions: Human alphaherpesvirus 1, HCLE, 24 h
[26] = system: SARS-CoV-2; assay: microbe, parasite or virus in culture; conditions: Severe acute respiratory syndrome coronavirus 2, Calu-3, 24 h
[27] = system: Canine Coronavirus; assay: microbe, parasite or virus in culture; conditions: Alphacoronavirus 1, CRFK, 24 h

Structure (SMILES): OC[C@H]1O[C@@H](Oc2cc3c(O[C@@H]4O[C@H](CO)[C@@H](O)[C@H](O)[C@H]4O)cc(O)cc3[o+]c2-c2ccc(O)c(O)c2)[C@H](O)[C@@H](O)[C@@H]1O [Cyanin]
- inhibitory potential against SARS-CoV-2 via inhibition of viral main protease [1]: good inhibitory potential

Structure (SMILES): Oc1cc(O)c2cc(O)c(-c3ccc(O)c(O)c3)[o+]c2c1 [A18, Cyanidin chloride]
- EC50 ([2]; RSV A2 in A549 cells): 8.5 ± 0.1 µg/mL
- EC50 ([2]; RSV A2 in HEp-2 cells): 3 ± 0.06 µg/mL
- CC50 at 24 h [3]: > 200 µg/mL
- infected and treated cells expressing gF ([4]; A549 cells, infected control 93%): 23%
- infected and treated cells expressing gF ([4]; HEp-2 cells, infected control 96%): 10%
- infected and treated cells expressing Spike protein [5]: 7%
- relative contents of viral RNA vs untreated infected cells [6]: significantly reduced
- virus adsorption: virus yield after treatment during binding stage ([7]; RSV A2 moi 1, 25 μg/mL of A18, 1 h at 4 °C): significant reduction of viral plaque formation
- virus internalization: viral infectivity after treatment during internalization ([7]; RSV A2 moi 1, 25 μg/mL of A18, 2 h at 37 °C): did not reduce viral infectivity
- virus adsorption: virus yield after treatment during binding stage ([8]; HSV-1 KOS moi 1, 25 μg/mL of A18, 1 h at 4 °C): significant reduction of viral plaque formation
- virus internalization: viral infectivity after treatment during internalization ([8]; HSV-1 KOS moi 1, 25 μg/mL of A18, 2 h at 37 °C): did not reduce viral infectivity
- virus adsorption: virus yield after treatment during binding stage ([9]; SARS-CoV-2 moi 1, 25 μg/mL of A18, 1 h at 4 °C): significant reduction of viral plaque formation
- virus internalization: viral infectivity after treatment during internalization ([9]; SARS-CoV-2 moi 1, 25 μg/mL of A18, 2 h at 37 °C): did not reduce viral infectivity
- IL-6 production vs RSV-infected control cells [10]: significantly reduced
- TNF-α production vs RSV-infected control cells [10]: significantly reduced
- IL-8 production vs RSV-infected control cells [10]: significantly reduced
- IL-6 production in TLR ligand-stimulated cells [11]: significantly inhibited
- IL-8 production in TLR ligand-stimulated cells [11]: significantly inhibited
- TNF-a production in TLR ligand-stimulated cells [11]: significantly inhibited
- NF-κB activation (NF-κB-LUC luciferase activity) [12]: strongly inhibited
- weight loss vs untreated infected controls ([13]; Balb/c mice, RSV A2 and line 19, A18 6 mg/kg i.p. or 3 mg/kg i.n. daily days 0-4, day 2 p.i. and entire course): significantly less weight loss
- RSV titers in the lung vs untreated animals ([13]; Balb/c mice, RSV A2 and line 19, A18 6 mg/kg i.p. or 3 mg/kg i.n. daily, day 4 p.i.): significantly lower
- lung histology, semiquantitative histological scoring (Inflammation Index) ([13]; RSV A2 and line 19 infected mice, H&E-stained lungs, day 8 p.i.): significantly reduced RSV-induced pathological damage
- pulmonary IFN-g levels, treated vs not treated [14]: did not observe statistical differences
- pulmonary IL-4 gene expression vs untreated infected animals [14]: significantly lower levels
- pulmonary IL-6 gene expression vs untreated infected animals [14]: significantly lower levels
- pulmonary IL-17A gene expression vs untreated infected animals [14]: significantly lower levels
- SI (ratio CC50/EC50) [15]: 46
- SI (ratio CC50/EC50) [16]: 26
- SI (ratio CC50/EC50) [17]: 43
- SI (ratio CC50/EC50) [18]: 23
- SI (ratio CC50/EC50) [19]: 26
- airway hyperreactivity (AHR) [20]: alleviated airway hyperreactivity (AHR)
- predicted interaction with SARS-CoV-2 spike protein [21]: interacts with spike protein
- EC50 ([22]; A549, 24 h): 9.8 ± 0.08 µg/mL
- EC50 ([22]; HEp-2, 24 h): 8 ± 0.1 µg/mL
- EC50 [23]: 5.5 ± 0.1 µg/mL
- EC50 [24]: 7.6 ± 0.05 µg/mL
- EC50 [25]: 4.6 ± 0.05 µg/mL
- EC50 [26]: 8.9 ± 0.09 µg/mL
- EC50 [27]: 7.7 ± 0.1 µg/mL

Structure (SMILES): CC(C)(C)c1ccc(S(=O)(=O)/C=C/C#N)cc1 [BAY 11-7085, reference compound]
- IL-6 production vs RSV-infected control cells [10]: significantly reduced
- TNF-α production vs RSV-infected control cells [10]: significantly reduced
- IL-8 production vs RSV-infected control cells [10]: significantly reduced
- IL-6 production in TLR ligand-stimulated cells [11]: significantly inhibited
- IL-8 production in TLR ligand-stimulated cells [11]: significantly inhibited
- TNF-a production in TLR ligand-stimulated cells [11]: significantly inhibited
- NF-κB activation (NF-κB-LUC luciferase activity) [12]: strongly inhibited

Structure (SMILES): O=C(O)CC(=O)OC[C@H]1O[C@@H](Oc2cc3c(O)cc(O)cc3[o+]c2-c2ccc(O)c(O)c2)[C@H](O)[C@@H](O)[C@@H]1O [Cyanidin 3-(6″-malonylglucoside)]
- inhibitory potential against SARS-CoV-2 via inhibition of viral main protease [1]: good inhibitory potential
